Residues, ends and D or L forms follow the SMILES beside them. *: point of attachment. Cbz = O=C(OCc1ccccc1)*; tBu = CC(C)(C)*
Columns and labels:
cathepsin L = cathepsin L (Homo sapiens, UniProt P07711); settings: cited from earlier work
Eimeria spp. = settings: 20 mg/kg body weight, up to 14 days before the experimental infection; on average; cited from earlier work
T. gallinae [1] = experiment: in vitro growth of T. gallinae (total trophozoite number); type: cell-based, Trichomonas gallinae; settings: 10,000 nM, after 24 hours of treatment, normalized to 1% DMSO-treated group NCA
Procedure: (§1) Z—FY—CHO was tested in an in vitro assay on growth and viability of two strains of T. gallinae (Vienna strain and ATCC 30095). T. gallinae is cultured in vitro under axenic conditions. Both strains are cultured in ATCC® Medium 2154 (LYI Entamoeba medium) which is prepared according to the recommendations of ATCC. Culture conditions are anaerobic at 37° C. Cultures are kept in sterile 50 ml plastic tubes in a total volume of 10 ml. T. gallinae cultures are passaged regularly (in two-day intervals) in advance to maintain the strains for the study.
Quantification of total parasite number: The total parasite number is calculated separately for each tube. Therefore, the contents of each tube are centrifuged and the sediment resuspended in a given volume. A dilution of a subsample is being examined in a Neubauer counting chamber, the total number of parasites counted and the number of parasites in the respective tube be calculated.
Each treatment group consists of 3 identical replicates, i.e. 3 tubes with identical treatment (triplicate).
(§2) Five concentrations of each substance were tested against T. gallinae, namely 1 nM, 10 nM, 100 nM, 1000 nM, and 10000 nM. The total exposure time of the test compounds for the efficacy assay was 72 hours; media were renewed in intervals of 24 hours. Efficacy was measured after 24 hours of incubation.

[2] = test system: T. gallinae cultured from the Vienna strain; experiment: in vivo efficacy study in pigeons inoculated with T. gallinae; set-up: species or system Columba livia forma domestica; settings: 5 mg/kg oral twice daily during 4 days, 15 birds per group
Procedure: (§3) Thirty Columba livia forma domestica of both gender (2 groups of fifteen birds) were inoculated per os via a syringe with 2 million T. gallinae cultured from the Vienna strain. Initial age of the pigeons was 4-5 months. Two days later the pigeons were treated with twice daily oral administration of 5 mg/kg of Z—FY—CHO or the placebo (vehicle alone) during 4 days. The formulation was composed of 50 mg of the agent added to 1.0 ml 96 g/v % ethanol and 4 gram of prewarmed Solutol HS15. The formulation was stirred to a clear solution, then it was topped up with prewarmed distilled water to a volume of 10 ml. From this solution 0.1 ml per 100 g body weight was administered (=5 mg/kg). […] Regurgitation has been detected first in one pigeon from the placebo group in the evening on day of infection. […] No gross pathological findings in the esophagus or crop were detected during the necropsy. However, heterophilic infiltrates in the mucosa as well as in the submucous tissue and lymphocytes and plasmacells in the submucous tissue have been detected histopathologically in total eight pigeons (27%). Catarrhal erosive esophagitis and ingluvitis was significant more often detected in pigeons from the placebo group (7 of 8 pigeons with inflammatory reaction of the esophagus and crop, 88%; p=0.018).

T. gallinae [3] = experiment: in vitro viability of T. gallinae (viable-to-dead ratio, DAPI staining); type: cell-based, Trichomonas gallinae; settings: different concentrations; after 24 hours of treatment
Procedure: as §1, §2
The total parasite number is calculated before a subsample is subject to counting of viable and dead parasites. For counting, parasites are stained by DAPI nucleus staining for differentiation of viable and dead parasites.

coccidiae = experiment: coccidiosis finding in the in vivo pigeon study; set-up: species or system Columba livia forma domestica; settings: 5 mg/kg oral twice daily during 4 days; 3 of 15 placebo pigeons still showed coccidiae
Procedure: as §3

[4] = side effects in the in vivo pigeon study; set-up: species or system Columba livia forma domestica; settings: 10 mg/kg per day oral, 4 days, pigeons
Procedure: as §3

Histomonas meleagridis = settings: 300-400 ppm, cited from earlier work

Chain of cathepsin L (P07711 114-333, species assumed): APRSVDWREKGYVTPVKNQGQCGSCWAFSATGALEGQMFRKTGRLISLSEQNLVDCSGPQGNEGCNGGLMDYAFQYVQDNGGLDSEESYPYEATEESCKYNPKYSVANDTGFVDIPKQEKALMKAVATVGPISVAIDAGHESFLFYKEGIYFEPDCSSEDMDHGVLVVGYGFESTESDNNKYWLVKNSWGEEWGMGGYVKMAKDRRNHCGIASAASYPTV

In the case of C[C@@H](C=O)NC(=O)[C@H](Cc1ccccc1)NC(=O)OCc1ccccc1 [d, Z-Phe-Ala-CHO], the IC50 (cathepsin L) is given as 15.5 nM.

For Cc1cc(-n2c(=O)[nH]c(=O)n(C)c2=O)ccc1Oc1ccc(SC(F)(F)F)cc1 [toltrazuril], the “reduction in the number of oocysts in individual fecal samples” value (Eimeria spp.) is listed as “more than 97%”.

With O=C[C@H](Cc1ccc(O)cc1)NC(=O)[C@H](Cc1ccccc1)NC(=O)OCc1ccccc1 [b, N-(benzyloxycarbonyl)-L-phenylalanyl-L-tyrosinal] (Cbz-Phe-Tyr-aldehyde) the “trophozoite number relative to group NCA (control group)” value (T. gallinae [1]; ATCC 30095 strain) was 26.3%, the “trophozoite number relative to group NCA (control group)” value (T. gallinae [1]; Vienna strain) was 24.0% and the pigeons with regurgitation ([2]; placebo 7 of 15, p=0.018) was “one”. The “pigeons with catarrhal erosive esophagitis and ingluvitis (histopathology)” value ([2]; placebo 7 pigeons, p=0.018) was “one”, the “viable-to-dead ratios compared to the control group NCA” value (T. gallinae [3]) was “Markedly lower” and the “detection of coccidiae after treatment” value (coccidiae) was “no coccidiae could be detected”. The side effects [4] was “no obvious and/or statistically significant side effects”.

In the case of CC(C)(C)Oc1ccc(CC(C=O)NC(=O)C(Cc2ccccc2)NC(=O)OCc2ccccc2)cc1 (stereo not drawn) [f, Z-Phe-Tyr(Bu)-CHO] (Cbz-Phe-Tyr(tBu)-aldehyde; configuration not given here), the IC50 (cathepsin L) is given as 6.96 nM.

In the case of CC(C)C[C@@H](C=O)NC(=O)[C@H](Cc1ccccc1)NC(=O)OCc1ccccc1 [c, Z-Phe-Leu-CHO] (Cbz-Phe-Leu-aldehyde), the IC50 (cathepsin L) is given as 0.78 nM.

In the case of O=C[C@H](Cc1ccccc1)NC(=O)[C@H](Cc1ccccc1)NC(=O)OCc1ccccc1 [a, Z-Phe-Phe-CHO] (Cbz-Phe-Phe-aldehyde), the IC50 (cathepsin L) is listed as 0.74 nM.

In the case of COc1ccc(C[C@@H](C=O)NC(=O)[C@H](Cc2ccccc2)NC(=O)OCc2ccccc2)cc1 [e, Z-Phe-Tyr(Me)-CHO] (Cbz-Phe-Tyr(Me)-aldehyde), the IC50 (cathepsin L) is given as 2.95 nM.

In the case of CC1CS(=O)(=O)CCN1/N=C/c1ccc([N+](=O)[O-])o1 (stereo not drawn) [Nifurtimox], the tolerability (Histomonas meleagridis; turkeys) is listed as “tolerated by turkeys” and the “efficacy (antiprotozoal)” value (Histomonas meleagridis) is listed as “effective”.

Reference: US20190030113A1, “DIPEPTIDYL ALDEHYDES FOR THE TREATMENT AND/OR PREVENTION OF PARASITIC DISEASES” (AXIAVA PHARMA UG, priority 2017, published 2019)
